# According to ChEMBL document CHEMBL2390904, “Bioavailable affinity label for collagen prolyl 4-hydroxylase” (Bioorg Med Chem, 2013):
# Calls of active or inactive are those of the source. The calls are words filed in the database; no cut-off is given here.
# Experiments:
# [1] = Binding affinity to human P4H expressed in Escherichia coli at 13 mM after 30 mins by SDS-PAGE analysis
# [2] = Irreversible inhibition of human P4H expressed in Escherichia coli using dansyl-Gly-phe-pro-Gly-OEt and alpha-ketoglutarate as substrate incubated up to 15 mins followed by substrate addition by Kitz-Wilson plot analysis
# [3] = Binding affinity to human P4H expressed in Escherichia coli using dansyl-Gly-phe-pro-Gly-OEt as substrate at 356 mM incubated up to 5 mins followed by substrate addition by competition assay in presence of alpha-ketoglutarate
# Caenorhabditis elegans = assay: (§1) Toxicity in L4-stage of Caenorhabditis elegans expressing dpy-18 assessed as embyronic lethality after 24 hrs by light microscopic analysis; format: organism-based; conditions: in vivo, 24 h
# [4] = as §1; format: organism-based; conditions: in vivo, read-out: LD50
compound,measurement,setting,value
O=C([O-])CCC(=O)C1CO1.[Na+] (racemic),Activity,[1],Active
same,inhibition,[2],Dose-dependent effect
same,Activity,[3],Active
same,Activity,Caenorhabditis elegans,Dose-dependent effect
same,LC50 at 24 h,[4],110 µM
